Test results: ChEMBL document CHEMBL1201862, “PubChem BioAssay data set” (2004)
The source made the active and inactive calls.

What was measured:
[1] = system: HEK293; experiment: viability loss in HEK293T cells – cell-based, ATP luminescence, cherry-pick samples, cytotoxicity control, dose response (AID 687005); type: functional; conditions: Homo sapiens;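 note: cells exposed to compound for 48 hours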
[2] = HEK293 Cytotoxicity Assay Measured in Cell-Based System Using Plate Reader - 7071-01_Inhibitor_Dose_CherryPick_Activity_Set2.; type: functional
[3] = glucagon-like peptide-1 release potency in STC-1, concentration-response, half-maximal inhibitory concentration in the STC-1 line (AID 1117345); type: functional, cell-based
[4] = Potency on glucagon-like peptide 1 release, dose-response in NCI-H716 cell line, half maximal inhibitory concentration (AID 1117344); type: functional, cell-based
[5] = target: Cytochrome P450 2C19 (Homo sapiens, UniProt P33261); experiment: qHTS Assay for Inhibitors and Substrates of Cytochrome P450 2C19. [Related pubchem assays: 410 ]; type: ADME; conditions: read-out: Potency
Sequence of Cytochrome P450 2C19 (P33261 whole entry): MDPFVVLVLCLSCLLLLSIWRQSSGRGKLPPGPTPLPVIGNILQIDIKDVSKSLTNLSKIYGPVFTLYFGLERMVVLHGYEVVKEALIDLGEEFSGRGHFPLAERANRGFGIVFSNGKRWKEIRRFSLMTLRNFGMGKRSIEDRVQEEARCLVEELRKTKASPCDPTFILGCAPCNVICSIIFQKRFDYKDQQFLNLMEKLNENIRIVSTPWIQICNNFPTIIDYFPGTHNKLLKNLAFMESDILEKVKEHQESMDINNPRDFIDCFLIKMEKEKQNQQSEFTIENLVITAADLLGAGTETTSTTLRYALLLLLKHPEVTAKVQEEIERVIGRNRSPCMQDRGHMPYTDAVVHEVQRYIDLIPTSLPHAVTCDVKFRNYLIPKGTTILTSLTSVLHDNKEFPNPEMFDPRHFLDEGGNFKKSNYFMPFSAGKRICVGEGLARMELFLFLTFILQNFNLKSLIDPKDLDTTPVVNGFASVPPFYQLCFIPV

[6] = target: Cytochrome P450 2C9 (Homo sapiens, UniProt P11712); conditions: Potency
Sequence of Cytochrome P450 2C9 (P11712 whole entry): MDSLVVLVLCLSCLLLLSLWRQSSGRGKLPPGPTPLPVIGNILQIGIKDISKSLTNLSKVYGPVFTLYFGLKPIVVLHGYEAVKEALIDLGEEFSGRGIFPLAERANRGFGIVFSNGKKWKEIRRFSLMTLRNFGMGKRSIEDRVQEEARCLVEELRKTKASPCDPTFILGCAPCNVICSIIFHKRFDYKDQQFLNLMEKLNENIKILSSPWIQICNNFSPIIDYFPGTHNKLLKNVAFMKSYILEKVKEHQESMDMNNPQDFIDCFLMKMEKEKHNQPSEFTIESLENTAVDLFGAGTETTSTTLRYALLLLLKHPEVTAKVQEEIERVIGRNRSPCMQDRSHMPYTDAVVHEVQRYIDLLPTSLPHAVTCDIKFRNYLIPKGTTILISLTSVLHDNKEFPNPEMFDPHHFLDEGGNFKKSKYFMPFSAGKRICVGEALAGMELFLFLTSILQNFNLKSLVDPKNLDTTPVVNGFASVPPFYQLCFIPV

[7] = target: Prothrombin (Homo sapiens, UniProt P00734); experiment: Thrombin 1536 HTS Dose Response Confirmation. [Related pubchem assays: 1046 (Thrombin 1536 HTS; hits were confirmed in this assay)]; type: functional
[8] = target: T1, Protein skinhead-1 (Caenorhabditis elegans, UniProt P34707); type: functional
T1 sequence (P34707 whole entry): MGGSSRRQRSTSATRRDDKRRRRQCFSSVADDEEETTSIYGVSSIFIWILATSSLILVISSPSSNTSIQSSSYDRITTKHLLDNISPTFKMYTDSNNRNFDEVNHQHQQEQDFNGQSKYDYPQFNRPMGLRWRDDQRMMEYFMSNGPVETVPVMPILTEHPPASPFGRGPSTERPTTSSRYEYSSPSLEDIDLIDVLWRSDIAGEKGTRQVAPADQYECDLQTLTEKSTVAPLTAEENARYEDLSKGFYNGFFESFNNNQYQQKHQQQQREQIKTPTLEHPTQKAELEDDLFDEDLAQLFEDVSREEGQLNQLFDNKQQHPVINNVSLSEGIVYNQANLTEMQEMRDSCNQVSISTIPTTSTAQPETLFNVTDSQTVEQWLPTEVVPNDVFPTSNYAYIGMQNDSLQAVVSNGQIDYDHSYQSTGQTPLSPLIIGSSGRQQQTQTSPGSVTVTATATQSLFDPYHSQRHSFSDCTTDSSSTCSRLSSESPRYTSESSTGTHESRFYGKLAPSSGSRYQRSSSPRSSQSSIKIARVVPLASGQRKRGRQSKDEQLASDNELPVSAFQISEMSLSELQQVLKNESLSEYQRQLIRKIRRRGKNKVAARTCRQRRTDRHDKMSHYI

[9] = target: T2, RNA-binding protein pos-1 (Caenorhabditis elegans, UniProt G5EF15); experiment: disruptors of C. elegans POS-1 RNA interaction – biochemical, fluorescence polarization, dose response (AID 1964);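 note: purified POS-1 fused to maltose binding protein made in E. coli; potency of compounds blocking POS-1 binding to fluorescent RNA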
T2 sequence (G5EF15 whole entry): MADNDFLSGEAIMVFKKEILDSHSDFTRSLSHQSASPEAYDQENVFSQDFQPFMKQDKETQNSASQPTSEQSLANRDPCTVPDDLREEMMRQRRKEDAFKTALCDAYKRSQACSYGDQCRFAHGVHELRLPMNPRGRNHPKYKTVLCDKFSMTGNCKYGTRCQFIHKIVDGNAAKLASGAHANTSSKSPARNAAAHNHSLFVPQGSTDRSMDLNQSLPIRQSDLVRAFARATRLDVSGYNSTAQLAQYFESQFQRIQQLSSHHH

[10] = target: T3, Zinc finger protein mex-5 (Caenorhabditis elegans, UniProt Q9XUB2); experiment: potency of MEX-5 RNA-binding blockers – biochemical, C. elegans, fluorescence polarization, dose response (AID 1960)
T3 sequence (Q9XUB2 whole entry): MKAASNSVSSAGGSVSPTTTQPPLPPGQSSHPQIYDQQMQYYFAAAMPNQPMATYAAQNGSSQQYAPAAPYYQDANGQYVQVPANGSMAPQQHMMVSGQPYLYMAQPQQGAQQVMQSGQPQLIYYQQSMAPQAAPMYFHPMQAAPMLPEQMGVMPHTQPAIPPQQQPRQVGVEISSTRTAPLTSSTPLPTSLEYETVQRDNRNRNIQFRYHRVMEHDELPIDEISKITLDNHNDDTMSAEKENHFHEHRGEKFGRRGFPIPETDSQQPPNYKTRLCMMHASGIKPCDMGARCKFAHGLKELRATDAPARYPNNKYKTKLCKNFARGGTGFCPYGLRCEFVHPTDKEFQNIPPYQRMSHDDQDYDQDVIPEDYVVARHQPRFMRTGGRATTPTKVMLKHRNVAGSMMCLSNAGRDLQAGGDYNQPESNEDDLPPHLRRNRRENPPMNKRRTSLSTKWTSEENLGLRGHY

[11] = target: Heat shock protein HSP 90-alpha (Homo sapiens, UniProt P07900); experiment: Luminescence-based dose response biochemical high throughput screening assay for inhibitors of the Heat Shock Protein 90 (HSP90). [Related pubchem assays: 1831 (Summary AID.), 1846 (Confirmation screen.), 1789 (Primary screen.)]
[12] = target: T4, Acyl-homoserine lactone acylase PvdQ (Pseudomonas aeruginosa (strain LESB58), UniProt Q9I194); experiment: PvdQ acylase enzyme activity blockers – biochemical, fluorescence, plate reader and imaging, cherry-picks, dose response (AID 493231)
T4 sequence (Q9I194 whole entry): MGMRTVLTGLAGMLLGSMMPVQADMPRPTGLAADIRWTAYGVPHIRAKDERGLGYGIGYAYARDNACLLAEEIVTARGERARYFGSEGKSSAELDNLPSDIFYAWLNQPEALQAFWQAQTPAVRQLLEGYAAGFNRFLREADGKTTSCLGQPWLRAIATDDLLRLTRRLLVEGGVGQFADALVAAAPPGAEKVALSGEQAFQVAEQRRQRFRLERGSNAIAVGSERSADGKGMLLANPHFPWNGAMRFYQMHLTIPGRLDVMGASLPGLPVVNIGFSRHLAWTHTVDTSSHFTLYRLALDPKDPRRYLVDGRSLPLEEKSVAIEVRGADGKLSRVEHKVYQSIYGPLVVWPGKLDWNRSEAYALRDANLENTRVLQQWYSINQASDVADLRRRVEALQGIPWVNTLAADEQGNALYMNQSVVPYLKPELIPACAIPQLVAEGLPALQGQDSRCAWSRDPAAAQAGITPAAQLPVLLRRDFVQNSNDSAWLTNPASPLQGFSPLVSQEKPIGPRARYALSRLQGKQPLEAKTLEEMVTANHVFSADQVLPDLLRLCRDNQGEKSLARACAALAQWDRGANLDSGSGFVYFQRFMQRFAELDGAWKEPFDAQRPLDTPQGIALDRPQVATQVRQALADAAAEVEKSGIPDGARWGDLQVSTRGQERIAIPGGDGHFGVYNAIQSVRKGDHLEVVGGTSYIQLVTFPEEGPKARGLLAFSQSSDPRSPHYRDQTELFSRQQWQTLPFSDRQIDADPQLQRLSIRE

[13] = target: COUP transcription factor 2 (Homo sapiens, UniProt P24468); experiment: Luminescence-based cell-based high throughput dose response assay to identify inhibitors of COUP-TFII (NR2F2).; type: functional;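 note: HEK293 cells transiently cotransfected with COUP-TFII expression vector and reporter; luciferase reporter luminescence driven by COUP-TFII from the pX2-168 reporter plasmid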
Sequence of COUP transcription factor 2 (P24468 whole entry, the tested form may be a part): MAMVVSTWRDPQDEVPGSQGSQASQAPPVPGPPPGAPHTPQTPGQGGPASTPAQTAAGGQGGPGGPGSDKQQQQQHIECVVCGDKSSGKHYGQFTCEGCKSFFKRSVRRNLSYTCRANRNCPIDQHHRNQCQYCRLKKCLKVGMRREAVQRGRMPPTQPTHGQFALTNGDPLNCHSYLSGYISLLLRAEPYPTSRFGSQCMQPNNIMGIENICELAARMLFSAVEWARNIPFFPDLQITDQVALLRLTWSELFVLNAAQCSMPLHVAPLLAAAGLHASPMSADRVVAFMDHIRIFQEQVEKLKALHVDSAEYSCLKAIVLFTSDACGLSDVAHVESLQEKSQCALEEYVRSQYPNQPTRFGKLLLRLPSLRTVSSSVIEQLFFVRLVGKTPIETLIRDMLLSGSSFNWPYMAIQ

[14] = blockers of HIV-1 envelope-mediated cell-cell fusion – cherry-pick, dose response (AID 652057); type: functional, cell-based
[15] = viability loss in CEM21 cells – cell-based, CellTiter-Glo luminescence, cherry-picked, cytotoxicity control for viral fusion inhibitor project, dose response (AID 652042); type: functional;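 note: potency for signal decrease meaning cytotoxicity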
[16] = blockers of HIV-1 ZM109 envelope-driven cell-cell fusion – HeLa effector, CEM target cells, luciferase, cherry-pick, dose response (AID 652058); type: functional, cell-based;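 note: luciferase signal from HIV-1 Env mediated cell-cell fusion of effector and target cells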
[17] = off-target signal loss in HeLa-CEM21 co-culture – HeLa F-luc CTL cells, cherry-picked, counter-screen for HIV-1 Env fusion inhibitor project, dose response (AID 652040); type: functional, cell-based;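 note: potency for signal decrease marking cytotoxic or nonspecific inhibition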
[18] = HIV-1 AD8 envelope cell-cell fusion blockers – cherry-pick, dose response (AID 652062); type: functional, cell-based;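 note: luciferase signal from cell-cell fusion driven by HIV-1 clade B AD8 Env; potency is for inhibitors of fusion seen as a drop in luminescence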
[19] = target: Paired box protein Pax-8 (Homo sapiens, UniProt Q06710); experiment: PAX8 transcriptional activity inhibition in RMG-I – RMG-I cells, luciferase, cherry-pick, dose response (AID 687027); type: functional, cell-based;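 note: luciferase reporter driven by Pax8 target thyroperoxidase promoter measured by SteadyGlo luminescence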
Sequence of Paired box protein Pax-8 (Q06710 whole entry): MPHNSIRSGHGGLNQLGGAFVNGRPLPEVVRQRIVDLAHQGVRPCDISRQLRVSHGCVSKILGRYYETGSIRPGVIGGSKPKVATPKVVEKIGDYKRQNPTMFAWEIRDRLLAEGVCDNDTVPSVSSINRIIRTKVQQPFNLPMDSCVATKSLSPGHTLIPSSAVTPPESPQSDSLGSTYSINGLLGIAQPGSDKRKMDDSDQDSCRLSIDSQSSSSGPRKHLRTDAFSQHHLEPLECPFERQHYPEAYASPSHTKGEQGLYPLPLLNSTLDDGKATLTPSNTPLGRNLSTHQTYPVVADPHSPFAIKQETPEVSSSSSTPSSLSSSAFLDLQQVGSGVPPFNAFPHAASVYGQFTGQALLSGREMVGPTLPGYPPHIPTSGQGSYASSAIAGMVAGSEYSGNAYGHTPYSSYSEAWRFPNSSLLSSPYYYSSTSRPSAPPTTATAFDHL

[20] = OVCAR-3 cell viability loss – plate reader, dry powder samples, PAX8 inhibitor project, dose response (AID 743044); type: functional, cell-based
[21] = OVCAR8 cell viability loss – plate reader, dry powder samples, PAX8 project, dose response (AID 743197); type: functional, cell-based; conditions: OVCAR-8
[22] = reduced cellular PGC1a acetyl-lysine signal – cell-based, cherry-picked samples, dose response (AID 720514); type: functional;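 note: potency may reflect raised or lowered acetylation signal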
[23] = target: Potassium channel subfamily K member 9 (Homo sapiens, UniProt Q9NPC2); experiment: KCNK9 flux blockade, concentration-response – cell-based, FluxOR thallium flux, selectivity assay for TASK1 inhibitor project, SAR follow-up (AID 652211); type: functional;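 note: potency is for inhibitors of the channel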
Sequence of Potassium channel subfamily K member 9 (Q9NPC2 whole entry): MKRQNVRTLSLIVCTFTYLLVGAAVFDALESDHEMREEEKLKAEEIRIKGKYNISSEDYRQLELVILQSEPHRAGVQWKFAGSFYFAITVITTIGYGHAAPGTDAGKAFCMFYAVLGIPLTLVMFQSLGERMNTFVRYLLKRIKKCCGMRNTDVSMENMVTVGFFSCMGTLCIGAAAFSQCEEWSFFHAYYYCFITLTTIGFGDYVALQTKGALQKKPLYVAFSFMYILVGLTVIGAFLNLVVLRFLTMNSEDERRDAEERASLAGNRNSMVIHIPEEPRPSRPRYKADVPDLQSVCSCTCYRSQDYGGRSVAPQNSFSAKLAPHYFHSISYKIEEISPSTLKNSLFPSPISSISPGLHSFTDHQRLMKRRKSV

[24] = target: Potassium channel subfamily K member 3 (Homo sapiens, UniProt O14649); experiment: inhibition of human KCNK3 channel flux – CHO cells, FluxOR thallium flux, SAR follow-up (AID 652212); type: functional
Sequence of Potassium channel subfamily K member 3 (O14649 whole entry): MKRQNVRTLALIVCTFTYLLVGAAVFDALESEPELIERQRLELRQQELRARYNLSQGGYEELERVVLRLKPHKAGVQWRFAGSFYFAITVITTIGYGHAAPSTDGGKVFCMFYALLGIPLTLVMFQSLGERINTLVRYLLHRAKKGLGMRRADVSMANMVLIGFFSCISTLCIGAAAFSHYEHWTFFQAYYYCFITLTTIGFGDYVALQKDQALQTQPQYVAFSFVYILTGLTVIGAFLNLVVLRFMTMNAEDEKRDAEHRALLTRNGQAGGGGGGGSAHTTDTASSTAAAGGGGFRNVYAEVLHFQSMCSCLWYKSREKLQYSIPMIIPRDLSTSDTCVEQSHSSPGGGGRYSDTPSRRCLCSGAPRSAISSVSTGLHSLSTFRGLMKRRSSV

[25] = Trypanosoma cruzi growth suppression in host cells – NIH3T3 host cells, beta-gal luminescence, confirmation (AID 2044); type: functional, cell-based;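 note: intracellular parasites grown in NIH/3T3 mouse fibroblasts as host cells; luminescent beta-galactosidase reporter signal from transgenic T. cruzi replicating inside host cells; inhibitors lower the luminescence signal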
[26] = NIH3T3 cell viability loss – ATP luminescence, mouse fibroblasts, counter-screen, dose response (AID 2010); type: functional, cell-based;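 note: cells exposed to compound for about 90 hours before reading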
[27] = cells
[28] = target: Kallikrein-7 (Homo sapiens, UniProt P49862); experiment: Fluorescence Intensity-based biochemical primary high throughput dose response assay to identify activators of kallikrein-7 (K7) zymogen.
Sequence of Kallikrein-7 (P49862 whole entry): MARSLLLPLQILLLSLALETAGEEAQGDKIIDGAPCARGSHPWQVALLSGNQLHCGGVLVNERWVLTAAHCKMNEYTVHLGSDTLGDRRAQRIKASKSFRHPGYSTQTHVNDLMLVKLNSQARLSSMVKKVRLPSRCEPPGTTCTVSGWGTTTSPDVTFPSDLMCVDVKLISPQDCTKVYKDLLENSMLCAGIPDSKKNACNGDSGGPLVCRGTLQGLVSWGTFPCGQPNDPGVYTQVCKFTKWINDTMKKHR

[29] = target: Cytochrome P450 3A4 (Homo sapiens, UniProt P08684); conditions: Potency;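 note: confirmatory qHTS run detecting inhibitors and substrates of CYP3A4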
Sequence of Cytochrome P450 3A4 (P08684 whole entry): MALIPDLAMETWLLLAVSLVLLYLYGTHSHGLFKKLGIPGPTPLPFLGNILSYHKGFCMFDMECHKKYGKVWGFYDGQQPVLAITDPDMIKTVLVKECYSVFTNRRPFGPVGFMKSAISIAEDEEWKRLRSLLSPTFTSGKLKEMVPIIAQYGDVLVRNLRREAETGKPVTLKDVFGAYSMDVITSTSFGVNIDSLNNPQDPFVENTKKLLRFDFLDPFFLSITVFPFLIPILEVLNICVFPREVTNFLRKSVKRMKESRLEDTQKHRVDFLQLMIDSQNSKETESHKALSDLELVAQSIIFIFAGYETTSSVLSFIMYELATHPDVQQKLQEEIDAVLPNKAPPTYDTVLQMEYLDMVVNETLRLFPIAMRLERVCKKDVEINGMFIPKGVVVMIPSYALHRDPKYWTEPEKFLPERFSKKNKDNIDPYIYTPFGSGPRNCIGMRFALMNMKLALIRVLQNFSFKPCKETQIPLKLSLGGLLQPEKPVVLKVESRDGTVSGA

[30] = luciferase reporter signal suppression in cells – H4 neuroglioma cells, luminescence, dose response (AID 1990); type: functional, cell-based
[31] = Luminescence Cell-Based Dose Response HTS to Identify Inhibitors of 5'UTR Stem-Loop Driven Prion Protein mRNA Translation in H4 Neuroglioblastoma Cells. [Related pubchem assays: 1827 (Project Summary), 1813 (Primary HTS)]; type: functional
[32] = alpha-synuclein stem-loop luciferase translation blockers – H4 neuroglioma cells, luminescence, confirmation (AID 1988); type: functional, cell-based
[33] = target: Transthyretin (Homo sapiens, UniProt P02766); experiment: Luminescence-based cell-based high throughput dose response assay to identify activators of Transthyretin (TTR) transcription.; type: functional

SMILES: CC(NC(=O)COc1ccccc1-c1ccccc1)c1ccccc1 (configuration not stated)
- AC50 [1]: 35.9 µM (active)
- AC50 [2]: 35.9 µM (active)

SMILES: Cc1c(C)n(CCN(C)C)c2ccc(C(=O)OCCN(C)C)cc12 [AMINDOCATE]
- IC50 [3]: 1.2 µM (active)
- IC50 [4]: > 40 µM (inactive)

SMILES: Cc1ccc(/C=C/C2=CC3(C)CC2(C)C(c2ccc(C)cc2)CC3=O)cc1 (configuration not stated)
- AC50 [5]: 0.631 µM (inconclusive)
- AC50 [6]: 3.98 µM (inconclusive)

SMILES: CC(C)OCCCn1c(=S)[nH]c2cc3c(cc2c1=O)OCO3
- IC50 [7]: > 50 µM (not active)
- IC50 [8]: > 100 µM (inactive)

SMILES: CCOC(=O)c1ccc(-c2ccc(C=O)o2)cc1
- EC50 [9]: 43.6 µM (active)
- EC50 [10]: > 300 µM (not active)
- IC50 [11]: 10.3 µM (not active)
- AC50 [12]: 9.42 µM (active)

SMILES: O=C(c1cccs1)C1CCN(c2ncnc3sccc23)CC1
- IC50 [13]: 4.18 µM (active)

SMILES: Cc1cccc(Nc2nc(-c3c(C)nc4ccccn34)cs2)c1
- AC50 [14]: 6.19 µM (active)
- AC50 [15]: 29.6 µM (active)
- AC50 [16]: 7.64 µM (active)
- AC50 [17]: 2.7 µM (active)
- AC50 [18]: 7.63 µM (active)
- IC50 [13]: 8.41 µM (active)

SMILES: C[C@@H]1CN([C@H](C)CO)C(=O)c2cc(NC(=O)CCC(F)(F)F)ccc2O[C@@H](C)CCCCO[C@@H]1CN(C)Cc1ccc(C(F)(F)F)cc1
- AC50 [19]: 8.65 µM (active)
- AC50 [20]: 26.5 µM (active)
- AC50 [21]: 45.3 µM (active)

SMILES: N#Cc1ccc(-c2ccc([C@@H]3[C@H]4CNC[C@@H]3N4Cc3ccc4c(c3)OCO4)cc2)cc1
- AC50 [22]: 16.9 µM (active)

SMILES: CCOc1ccccc1NC(=O)c1cccc(NC(=O)c2ccccc2OC)c1
- IC50 [23]: 1.18 µM (active)
- IC50 [24]: 0.007 µM (active)

SMILES: Cc1ccc(CNC(=O)CCC2CCCN(Cc3c(C)nn(C(C)C)c3C)C2)o1 (configuration not stated)
- EC50 [25]: < 0.1 µM (active)
- EC50 [26]: > 60 µM (not active)
- EC50 [27]: 0.011 µM (active)

SMILES: COc1ccccc1C1C=C(c2ccccc2)Nc2nnnn21 (configuration not stated)
- EC50 [28]: 12.1 µM (inactive)

SMILES: COC(=O)C/C=C/C(C)C(OCc1cccc(Br)c1)C(C)C(OC)C1CCCCC1 (configuration not stated)
- AC50 [5]: 5.01 µM (inconclusive)
- AC50 [29]: 3.98 µM (inconclusive)

SMILES: O=C(C[C@H]1CC[C@H]2[C@@H](COC[C@H](O)CN2Cc2cccc(Cl)c2)O1)Nc1nccs1
- AC50 [1]: 16.7 µM (active)
- AC50 [2]: 16.7 µM (active)

SMILES: Cc1ccc(CNC(=O)Cc2ccc(-c3ccccc3)cc2)cc1
- EC50 [30]: > 120 µM (not active)
- EC50 [31]: 10.4 µM (active)
- EC50 [32]: 6.89 µM (active)
- EC50 [33]: > 167 µM (inactive)

SMILES: CCOc1ccc(CNCCc2ccc3c(c2)OCO3)cc1
- EC50 [25]: < 0.1 µM (active)
- EC50 [26]: > 60 µM (not active)
- EC50 [27]: 0.496 µM (active)

SMILES: O=c1[nH]sc2cc(Cl)ccc12 [TICLATONE]
- IC50 [3]: > 40 µM (inactive)
- IC50 [4]: > 40 µM (inactive)

SMILES: CC(=O)N1c2ccccc2N2C(c3c(C)c(C)cc(C)c3C)=NON12
- IC50 [7]: 3.37 µM (active)

SMILES: COc1ccc(-c2cn3c(C)c(C(=O)Nc4cccc(C)n4)sc3n2)cc1
- IC50 [11]: 0.327 µM (active)

SMILES: Cc1ccccc1Cn1cc(COC(=O)N(C)Cc2ccccc2)nn1
- EC50 [33]: > 167 µM (inactive)

SMILES: COc1ccccc1C(=O)Nc1cc(NC(=O)c2cccc(C)c2)ccc1F
- IC50 [23]: 6.31 µM (active)
- IC50 [24]: 0.159 µM (active)
